Measured values reported in ChEMBL document CHEMBL4715915, “Identification of madangamine A as a novel lysosomotropic agent to inhibit autophagy” (2021).
The source made the active and inactive calls. No cut-off for these calls is given here.

Legend:
HeLa [1] = assay: Induction of autophagy in human HeLa cells assessed as decrease in P62 protein level at 1 uM after 24 hrs by Western blot analysis; format: functional, cell-based
HeLa [2] = assay: Inhibition of autophagy in human HeLa cells assessed as increase in lysosomal pH at 10 uM after 24 hrs by LysoTracker Red DND-99 staining based fluorescence microscopic method; format: functional, cell-based
HeLa [3] = assay: Induction of autophagosome formation in human HeLa cells assessed as increase in LC3 puncta at 10 nM after 24 hrs by Alexa Fluor 488 staining based fluorescence microscopic analysis; format: functional, cell-based
HeLa [4] = assay: Inhibition of autophagy in human HeLa cells assessed as increase in lysosomal pH at 10 nM after 24 hrs by LysoTracker Red DND-99 staining based fluorescence microscopic method; format: functional, cell-based
HeLa [5] = assay: Inhibition of autophagy in human HeLa cells assessed as increase in P62 protein level at 10 nM after 24 hrs by Western blot analysis; format: functional, cell-based
HeLa [6] = assay: Induction of autophagosome formation in human HeLa cells assessed as increase in LC3 puncta at 10 uM after 24 hrs in presence of Baf A1 by Alexa Fluor 488 staining based fluorescence microscopic analysis; format: functional, cell-based
HeLa [7] = assay: Inhibition of autophagy in human HeLa cells assessed as increase in P62 protein level at 10 uM after 24 hrs in presence of Baf A1 by Western blot analysis; format: functional, cell-based
HeLa [8] = assay: Induction of autophagosome formation in human HeLa cells assessed as increase in LC3 puncta at 10 uM after 6 hrs in presence of rapamycin by Alexa Fluor 488 staining based fluorescence microscopic analysis; format: functional, cell-based
HeLa [9] = assay: Inhibition of autophagy in human HeLa cells assessed as increase in P62 protein level at 10 uM after 24 hrs in presence of chloroquine by Western blot analysis; format: functional, cell-based
HeLa [10] = assay: Modulation of autophagy in human HeLa cells assessed as increase in LC3-2 protein level at 1 to 20 uM after 24 hrs by Western blot analysis; format: functional, cell-based; conditions: dose 1-20 µM
HeLa [11] = assay: Antiproliferative activity against human HeLa cells assessed as cell viability at 1 uM after 24 hrs by MTT assay relative to control; format: functional; conditions: read-out: Activity
SK-MEL-28 = assay: Induction of autophagosome formation in SK-MEL-28 cells assessed as increase in LC3 puncta at 10 uM after 24 hrs by Alexa Fluor 488 staining based fluorescence microscopic analysis; format: functional, cell-based; conditions: Homo sapiens
HeLa [12] = assay: Antiproliferative activity against human HeLa cells assessed as cell viability at 20 uM after 24 hrs by MTT assay relative to control; format: functional; conditions: read-out: Activity
HeLa [13] = assay: Induction of autophagosome formation in human HeLa cells assessed as increase in LC3 puncta at 10 uM after 24 hrs by Alexa Fluor 488 staining based fluorescence microscopic analysis; format: functional, cell-based
HeLa [14] = assay: Antiproliferative activity against human HeLa cells assessed as cell viability at 10 uM after 24 hrs by MTT assay relative to control; format: functional; conditions: read-out: Activity
HeLa [15] = assay: Modulation of autophagy in human HeLa cells assessed as increase in LC3-2 protein level at 10 uM after 24 hrs in presence of Baf A1 by Western blot analysis; format: functional, cell-based
HeLa [16] = assay: Modulation of autophagy in human HeLa cells assessed as increase in LC3-2 protein level at 10 uM after 24 hrs in presence of chloroquine by Western blot analysis; format: functional, cell-based
HeLa [17] = assay: Inhibition of autophagy in human HeLa cells assessed as increase in P62 protein level at 1 to 20 uM after 24 hrs by Western blot analysis; format: functional, cell-based; conditions: dose 1-20 µM
HT-1080 = assay: Induction of autophagosome formation in HT-1080 cells assessed as increase in LC3 puncta at 10 uM after 24 hrs by Alexa Fluor 488 staining based fluorescence microscopic analysis; format: functional, cell-based; conditions: Homo sapiens
HeLa [18] = assay: Inhibition of autophagy in human HeLa cells assessed as decrease in cathepsin B at 10 nM after 24 hrs by immunoblot analysis; format: functional, cell-based

CO[C@H]1C[C@@H]2CC[C@@H](C)[C@@](O)(O2)C(=O)C(=O)N2CCCC[C@H]2C(=O)O[C@H]([C@H](C)C[C@@H]2CC[C@@H](O)[C@H](OC)C2)CC(=O)[C@H](C)/C=C(\C)[C@@H](O)[C@@H](OC)C(=O)[C@H](C)C[C@H](C)/C=C/C=C/C=C/1C
Activity (HeLa [1]): Active

CCN(CC)CCCC(C)Nc1ccnc2cc(Cl)ccc12 (stereo unspecified)
inhibition (HeLa [2]): Active

CO/C1=C\C(C)=C\[C@@H](C)[C@@H](O)[C@@H](C)C/C(C)=C/C=C/[C@H](OC)[C@@H]([C@@H](C)[C@@H](O)[C@H](C)[C@@]2(O)C[C@@H](O)[C@H](C)[C@@H](C(C)C)O2)OC1=O
Activity (HeLa [3]): Active
inhibition (HeLa [4]): inactive
inhibition (HeLa [5]): Active

C1=C\C/C=C\CC[C@@]23CN(CC/C=C\C/1)C[C@H]1C/C4=C/C/C=C\CCCCN(C2)[C@@H]4C[C@H]13
Activity (HeLa [6]): Active
inhibition (HeLa [7]): Active
Activity (HeLa [8]): inactive
inhibition (HeLa [9]): Active
Activity (HeLa [10]): Active
viability at 1 µM (HeLa [11]): 95.2%
inhibition (HeLa [2]): Active
Activity (SK-MEL-28): Active
viability at 20 µM (HeLa [12]): 1.4%
Activity (HeLa [13]): Active
viability at 10 µM (HeLa [14]): 2.9%
inhibition (HeLa [15]): Active
inhibition (HeLa [16]): Active
inhibition (HeLa [17]): Active
Activity (HT-1080): Active
inhibition (HeLa [18]): Active
